Molecular target: T1, human GluR2B receptor (Homo sapiens, UniProt P42262)
T1 construct: transported to the cell surface in mature form, lacking the signal peptide and consisting of 862 amino acids; expressed in transfected cells; host or cells: COS-1 (ATCC CRL 1650), transient, plasmid pcDNA1/humGluR2B
Assay: ligand binding assay (NMDA) with membranes of cells producing human GluR2B
Details: method for NMDA not described

T1 sequence (P42262 25-883): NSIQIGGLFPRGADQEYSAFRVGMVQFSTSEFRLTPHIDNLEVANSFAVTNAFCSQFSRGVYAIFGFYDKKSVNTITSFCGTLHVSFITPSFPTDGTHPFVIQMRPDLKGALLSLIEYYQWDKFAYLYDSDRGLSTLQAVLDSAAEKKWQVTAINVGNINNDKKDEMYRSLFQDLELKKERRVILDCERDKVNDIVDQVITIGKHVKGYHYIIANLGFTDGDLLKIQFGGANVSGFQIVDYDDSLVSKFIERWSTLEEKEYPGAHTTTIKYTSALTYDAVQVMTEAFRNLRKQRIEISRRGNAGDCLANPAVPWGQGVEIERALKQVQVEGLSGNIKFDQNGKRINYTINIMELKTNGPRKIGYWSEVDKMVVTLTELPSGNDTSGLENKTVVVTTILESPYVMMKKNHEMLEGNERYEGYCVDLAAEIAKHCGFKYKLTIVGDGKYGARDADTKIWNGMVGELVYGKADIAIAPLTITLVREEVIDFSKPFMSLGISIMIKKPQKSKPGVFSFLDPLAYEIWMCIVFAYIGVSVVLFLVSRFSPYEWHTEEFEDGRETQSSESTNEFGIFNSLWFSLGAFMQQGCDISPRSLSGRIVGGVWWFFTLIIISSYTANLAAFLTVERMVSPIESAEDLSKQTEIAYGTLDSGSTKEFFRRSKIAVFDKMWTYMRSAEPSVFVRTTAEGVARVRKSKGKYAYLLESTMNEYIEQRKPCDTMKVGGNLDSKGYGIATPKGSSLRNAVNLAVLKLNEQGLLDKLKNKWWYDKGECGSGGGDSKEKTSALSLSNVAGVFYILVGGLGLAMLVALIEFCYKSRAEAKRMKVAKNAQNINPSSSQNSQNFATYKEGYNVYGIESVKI

In the case of `CN[C@H](CC(=O)O)C(=O)O` [NMDA, N-methyl-D-aspartate], the “binding to human GluR2B receptor (in words)” value was “little or no demonstrable binding”.

— patent publication US6399313B1, “AMPA-binding human GluR2 receptors” (NPS Allelix Corp., priority 1992, dated 2002)
